According to patent US20260355182A1, “ISOQUINOLINE DERIVATIVE, SYNTHESIS METHOD THEREFOR, AND USE THEREOF” (Harbin Gloria Pharmaceuticals Co., Ltd., priority 2023, published 2026):
Blank lines part the entries; values can stand above or below the compound they belong to.

Key:
Pgk1 = biological target: T1, Pgk1 (Homo sapiens, UniProt P00558); test: Affinity for Pgk1 protein (Biacore T200); type: binding; settings: drug alone; amount of small-molecule drug bound
T1 sequence (P00558 1-417): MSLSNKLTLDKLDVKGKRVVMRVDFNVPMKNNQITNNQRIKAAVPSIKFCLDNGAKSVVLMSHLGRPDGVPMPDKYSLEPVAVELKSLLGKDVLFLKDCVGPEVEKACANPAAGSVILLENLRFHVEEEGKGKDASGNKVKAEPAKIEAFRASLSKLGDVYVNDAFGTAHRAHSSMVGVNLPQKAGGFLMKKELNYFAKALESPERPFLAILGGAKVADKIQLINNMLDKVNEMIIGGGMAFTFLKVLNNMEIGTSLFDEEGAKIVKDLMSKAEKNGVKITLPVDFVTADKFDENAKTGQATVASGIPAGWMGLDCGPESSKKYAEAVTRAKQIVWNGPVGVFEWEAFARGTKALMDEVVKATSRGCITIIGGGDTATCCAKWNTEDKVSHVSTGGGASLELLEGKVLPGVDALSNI
Procedure: Example 30: Determination of Affinities of Compounds for Pgk1 Protein
Purified Pgk1 protein (with a concentration of 1 mg/mL) was immobilized on a Biacore T200 chip. […] The obtained curves can calculate parameters such as affinity and Rmax.

[1] = tested on: MPTP-induced Parkinson's disease model mice; test: MPTP-induced mouse model of Parkinson's disease, rotarod and tyrosine hydroxylase Western blot; type: in vivo
Procedure: Male mice aged 3 months were used and fed normally. The acute MPTP modeling method (see Sonsalla P K, Heikkila R E. The influence of dose and dosing interval on MPTP-induced dopaminergic neurotoxicity in mice. Eur J Pharmacol 1986; 129(3): 339-45.) was employed. MPTP was injected intraperitoneally four times in total at a dose of 20 mg/kg body weight per injection, with a 2-hour interval between each injection. MPTP was dissolved in normal saline, and the control group received an equal dose of normal saline. T2 was dissolved in DMSO and diluted with normal saline to the desired concentration. Accordingly, equal doses of DMSO and normal saline were administered during the treatment. On the day of MPTP model establishment, mice were administered either T2 (treatment group) or DMSO (control group). Subsequently, mice in all groups were administered the corresponding drugs daily. Mouse behavior was tested using a rotarod (E103, UGO BASILE). First, mice were pre-trained for two consecutive days at a constant speed of 15 revolutions per minute (15 rpm) until they could stay on the rod for more than 60 seconds. On day 7 after MPTP injection, mice were tested on the rotarod in an accelerating mode (2 rpm to 45 rpm). The latency to fall from the rotarod was recorded, and the behavior was monitored by a camera. After the experiment, the mice were sacrificed, and the striatal brain tissue was harvested for Western blot assay. Tyrosine hydroxylase (TH) is a protein specifically expressed in dopaminergic neurons. Therefore, whether dopaminergic neurons were damaged can be determined by Western blot assay using an anti-TH antibody.

SK-N-SH cells = test: Effects of compounds on cellular ATP levels (Promega ATP assay); type: cell-based, human; settings: 1 μM, 48 hours, 5% O2; untreated = 1
Procedure: Effects of compounds on cellular ATP levels.
Human Neuroblastoma Cell Line (SK-N-SH) is a human-derived neuroblastoma cell line. SK-N-SH cells were seeded in a 6-well plate at a density of 6×10^4 cells per well. The cells were cultured for 12 hours under 5% O2. Various drugs at a concentration of 1 μM were added. After 48 hours, the cells were harvested. Cellular ATP levels were measured using the Promega ATP assay kit. The experiment was repeated 6 times to 10 times. The experimental results were illustrated in FIG. 1. […] T1 to T11 were the experimental groups.

[2] = tested on: phosphoglycerate kinase 1 (Pgk1); settings: previous studies; cited from earlier work
al adrenergic receptor = settings: cited from earlier work
patients = settings: cited from earlier work
glucose metabolism = settings: human, in vivo; cited from earlier work
diabetic patients = settings: cited from earlier work
db/db mice [3] = test: Hypoglycemic effect in diabetic model db/db mice, intraperitoneal; type: in vivo; settings: 0.6 mg/Kg i.p., 4 hours
Procedure: Gene knockout db/db mice are a classic model of hyperglycemia and obesity. Under normal feeding conditions, mice aged 3 months or older developed hyperglycemia and obesity. After the mice were provided with only drinking water (fasted) for 6 hours, blood was collected from the tail of the mice to measure blood glucose values. Subsequently, different drugs, including saline (control), liraglutide at 0.6 mg/Kg, low-concentration T6 (T6 low, 0.1 mg/Kg), and high-concentration T6 (T6 high, 0.5 mg/Kg), were injected intraperitoneally. 4 hours later, blood was collected from the tail of the mice to measure the blood glucose levels. Each group consisted of 6 mice. Blood glucose levels before administration (Vbefore) and after administration (Vafter) were obtained for each mouse. The effect of the drug on blood glucose (%) was calculated as follows:
(Vbefore−Vafter)×100/Vbefore.

db/db mice [4] = test: Acute glucose-response assay in non-fasted db/db mice; type: in vivo; settings: s.c., 2 h; TZ 0.5, liraglutide 0.6, T6 0.5 mg/Kg
Procedure: The db/db mice were used to evaluate the glucose-lowering activity of compound T6 in comparison with reference metabolic agents (TZ 0.5 mg/Kg, liraglutide 0.6 mg/Kg, T6 0.5 mg/Kg). In FIG. 15, A) for the acute glucose-response assay, drugs were administered to non-fasted db/db mice. Immediately after drug administration (s. c.), mice were deprived of food and water, and blood glucose levels were measured from tail blood samples 2 h later. The relative percentage change in blood glucose was calculated by comparing glucose levels before and after treatment in the same animal. […] HbA1c levels were then measured using a glycated hemoglobin A1c enzyme-linked immunosorbent assay, also referred to as a mouse HbA1c ELISA assay. […] Data are presented as mean±error bars, with individual circles representing individual animals. Statistical significance is indicated as P<0.001 (**) and P<0.0001 (***).

rats = settings: combined administration of terazosin and propranolol; cited from earlier work
[5] = tested on: Parkinson's disease and related diseases; settings: long-term use; cited from earlier work

Compound: Nc1ncnc2c1ncn2[C@@H]1O[C@H](COP(=O)(O)OP(=O)(O)O)[C@@H](O)[C@H]1O [ADP, reference compound]
- Rmax (Pgk1): 35 RU

Compound: Nc1nc(N2CCN(C(=O)[C@H]3CCCO3)CC2)cc2cc3c(cc12)OCO3 [Compound T1]
- Rmax (Pgk1): 116 RU

Compound: Nc1nc(N2CCN(C(=O)[C@@H]3CCCO3)CC2)cc2cc3c(cc12)OCO3 [Compound T2]
- Rmax (Pgk1): 122 RU
- Tyrosine hydroxylase level / dopaminergic neurons ([1]; T2 0.1 mg/Kg, striatum, Western blot): exerted a protective effect on dopaminergic neurons
- Motor ability (rotarod) ([1]; T2 0.1, 0.3 and 1 mg/Kg, day 7 after MPTP): exerted protective effects

Compound: CC1Oc2cc3cc(N4CCN(C(=O)[C@H]5CCCO5)CC4)nc(N)c3cc2O1 (stereo partly drawn) [Compound T3]
- Rmax (Pgk1): 93 RU

Compound: CC1(C)Oc2cc3cc(N4CCN(C(=O)[C@H]5CCCO5)CC4)nc(N)c3cc2O1 [Compound T4]
- Rmax (Pgk1): 75 RU

Compound: Nc1nc(N2CCN(C(=O)[C@H]3CCCO3)CC2)cc2cc3c(cc12)CCO3 [Compound T5]
- Rmax (Pgk1): 86 RU

Compound: Nc1nc(N2CCN(C(=O)C3CCCC3)CC2)cc2cc3c(cc12)OCO3 [Compound T7]
- Rmax (Pgk1): 159 RU

Compound: Nc1nc(N2CCN(C(=O)[C@H]3CCCN3)CC2)cc2cc3c(cc12)OCO3 [Compound T8]
- Rmax (Pgk1): 87 RU

Compound: Nc1nc(N2CCN(C(=O)[C@@H]3CCCN3)CC2)cc2cc3c(cc12)OCO3 [Compound T9]
- Rmax (Pgk1): 87 RU

- Rmax (Pgk1): None
Compound: Nc1nc(N2CCN(C(=O)[C@H]3CCCO3)CC2)cc2cc3c(cc12)OCCO3 [Compound T10]
- Activity in increasing cellular ATP (SK-N-SH cells): no such activity of increasing cellular ATP

- Rmax (Pgk1): None
Compound: Nc1nc(N2CCN(C(=O)c3ccco3)CC2)cc2cc3c(cc12)OCO3 [Compound T11]
- Activity in increasing cellular ATP (SK-N-SH cells): no such activity of increasing cellular ATP

Compound: COc1cc2cc(N3CCN(C(=O)C4CCCO4)CC3)nc(N)c2cc1OC (stereo not drawn) [TZ-md]
- Binding to / activation of Pgk1 [2]: still retains the effect of activating Pgk1
- Inhibition of the al adrenergic receptor (al adrenergic receptor): does not inhibit the al adrenergic receptor
- Reduction of affinity for the al adrenergic receptor (al adrenergic receptor; substitution of quinazoline nitrogen by carbon, vs terazosin): more than 1000 fold

Compound: COc1cc2nc(N(C)CCCNC(=O)C3CCCO3)nc(N)c2cc1OC (stereo not drawn) [alfuzosin]
- Side effects (patients): intraoperative floppy iris syndrome (IFIS), hypotension, fatigue, dizziness, syncope, and blurred vision

Compound: COC1=C(OC)C(=O)C(C/C=C(\C)CC/C=C(\C)CC/C=C(\C)CC/C=C(\C)CC/C=C(\C)CC/C=C(\C)CC/C=C(\C)CC/C=C(\C)CC/C=C(\C)CCC=C(C)C)=C(C)C1=O [coenzyme Q10]
- Clinical efficacy on glucose metabolism (glucose metabolism): either no effect or clinical efficacy in only a small subset of the population

Compound: CN(CC(=O)O)C(=N)N [creatine]
- Clinical efficacy on glucose metabolism (glucose metabolism): either no effect or clinical efficacy in only a small subset of the population

Compound: COc1cc2nc(N3CCN(C(=O)C4COc5ccccc5O4)CC3)nc(N)c2cc1OC (stereo not drawn) [doxazosin]
- Blood glucose and lipid levels (diabetic patients): efficacy is extremely limited or ineffective
- Side effects (patients): intraoperative floppy iris syndrome (IFIS), hypotension, fatigue, dizziness, syncope, and blurred vision

Compound: CCCCCCCCCCCCCCCC(=O)N[C@@H](CCC(=O)NCCCC[C@H](NC(=O)[C@H](C)NC(=O)[C@H](C)NC(=O)[C@H](CCC(N)=O)NC(=O)CNC(=O)[C@H](CCC(=O)O)NC(=O)[C@H](CC(C)C)NC(=O)[C@H](Cc1ccc(O)cc1)NC(=O)[C@H](CO)NC(=O)[C@H](CO)NC(=O)[C@@H](NC(=O)[C@H](CC(=O)O)NC(=O)[C@H](CO)NC(=O)[C@@H](NC(=O)[C@H](Cc1ccccc1)NC(=O)[C@@H](NC(=O)CNC(=O)[C@H](CCC(=O)O)NC(=O)[C@H](C)NC(=O)[C@@H](N)Cc1cnc[nH]1)[C@@H](C)O)[C@@H](C)O)C(C)C)C(=O)N[C@@H](CCC(=O)O)C(=O)N[C@@H](Cc1ccccc1)C(=O)N[C@H](C(=O)N[C@@H](C)C(=O)N[C@@H](Cc1c[nH]c2ccccc12)C(=O)N[C@@H](CC(C)C)C(=O)N[C@H](C(=O)N[C@@H](CCCNC(=N)N)C(=O)NCC(=O)N[C@@H](CCCNC(=N)N)C(=O)NCC(=O)O)C(C)C)[C@@H](C)CC)C(=O)O [liraglutide, reference compound]
- Hypoglycemic effect (liraglutide) (db/db mice [3]): optimal hypoglycemic effect
- Acute change in blood glucose (db/db mice [4]): marked reduction in blood glucose

Compound: CN(C)C(=N)N=C(N)N [metformin, reference compound]
- Clinical efficacy on glucose metabolism (glucose metabolism): either no effect or clinical efficacy in only a small subset of the population

Compound: CC(C)NCC(O)COc1cccc2ccccc12 (stereo not drawn) [propranolol]
- Blood glucose in rats (rats): did not affect blood glucose in rats

Compound: CO[C@H]1C[C@@H]2CC[C@@H](C)[C@@](O)(O2)C(=O)C(=O)N2CCCC[C@H]2C(=O)O[C@H]([C@H](C)C[C@@H]2CC[C@@H](O)[C@H](OC)C2)CC(=O)[C@H](C)/C=C(\C)[C@@H](O)[C@@H](OC)C(=O)[C@H](C)C[C@H](C)/C=C/C=C/C=C/1C [rapamycin, reference compound]
- Clinical efficacy on glucose metabolism (glucose metabolism): either no effect or clinical efficacy in only a small subset of the population

Compound: Oc1ccc(C=Cc2cc(O)cc(O)c2)cc1 [resveratrol, reference compound]
- Clinical efficacy on glucose metabolism (glucose metabolism): either no effect or clinical efficacy in only a small subset of the population

Compound: CCOc1ccccc1OCCN[C@H](C)Cc1ccc(OC)c(S(N)(=O)=O)c1 [tamsulosin]
- Effect on incidence of Parkinson's disease and related diseases [5]: do not exhibit similar effects
- Side effects (patients): intraoperative floppy iris syndrome (IFIS), hypotension, fatigue, dizziness, syncope, and blurred vision

Compound: O=C(O)c1cccnc1 [vitamin B3]
- Clinical efficacy on glucose metabolism (glucose metabolism): either no effect or clinical efficacy in only a small subset of the population

Compound: insulin
- Clinical efficacy on glucose metabolism (glucose metabolism): either no effect or clinical efficacy in only a small subset of the population
